Legend:
E. coli 14 = assay: MIC, liquid medium test tube series dilution test; assay type: cell-based; conditions: E. coli 14, 24 hours, 37°C
How it was run: (§1)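 In this in vitro test, growth inhibition is judged by absence of turbidity across a dilution series in complete nutrient broth. Readings are made after 24 hours at 37°C, with values given in units/ml.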

E. coli 183/58 = assay: MIC, liquid medium test tube series dilution test; assay type: cell-based; conditions: E. coli 183/58, 24 hours, 37°C
How it was run: as §1

E. coli A 261 = assay: MIC, liquid medium test tube series dilution test; assay type: cell-based; conditions: E. coli A 261, 24 hours, 37°C
How it was run: as §1

E. coli C 165 = assay: MIC, liquid medium test tube series dilution test; assay type: cell-based; conditions: E. coli C 165, 24 hours, 37°C
How it was run: as §1

Klebsiella 63 = assay: MIC, liquid medium test tube series dilution test; assay type: cell-based; conditions: Klebsiella 63, 24 hours, 37°C
How it was run: as §1

Klebsiella K 10 = assay: MIC, liquid medium test tube series dilution test; assay type: cell-based; conditions: Klebsiella K 10, 24 hours, 37°C
How it was run: as §1

[1] = system: Streptoc. faec. ATCC 9790; assay: MIC, liquid medium test tube series dilution test; assay type: cell-based; conditions: Strep. faec. (Enterococcus) ATCC 9790, 24 hours, 37°C
How it was run: as §1

Proteus vulg. 1017 = assay: MIC, liquid medium test tube series dilution test; assay type: cell-based, Proteus vulgaris; conditions: Proteus vulg. 1017, 24 hours, 37°C
How it was run: as §1

Proteus vulg. 3400 = assay: MIC, liquid medium test tube series dilution test; assay type: cell-based, Proteus vulgaris; conditions: Proteus vulg. 3400, 24 hours, 37°C
How it was run: as §1

Psdm. aerug. Bonn = assay: MIC, liquid medium test tube series dilution test; assay type: cell-based, Pseudomonas aerug.; conditions: 24 hours, 37°C
How it was run: as §1

Psdm. aerug. Walter [2] = assay: MIC, liquid medium test tube series dilution test; assay type: cell-based, Pseudomonas aerug.; conditions: 24 hours, 37°C
How it was run: as §1

Staph. aureus 133 [3] = assay: MIC, liquid medium test tube series dilution test; assay type: cell-based, Staphylococcus aureus; conditions: Staph. aureus 133, 24 hours, 37°C
How it was run: as §1

Staph. aureus 1777 E = assay: MIC, liquid medium test tube series dilution test; assay type: cell-based, Staphylococcus aureus; conditions: 24 hours, 37°C
How it was run: as §1

Staph. aureus 133 [4] = assay: Surviving mice after intraperitoneal infection and subcutaneous therapy; assay type: in vivo, white mice, CF1 strain; conditions: 2 × 200 units/mouse s.c.
Description: (§2) The experiments on animals (see Table 3) were carried out with white mice of the CF1 strain. The infection took place intraperitoneally with the particular bacterium indicated.

[5] = Acute toxicity (LD50), intravenous injection into the vein of the tail; assay type: in vivo; conditions: mouse, in vivo, iv
Description: Acute toxicity (LD50) in white mice after
intravenous injection into the vein of the […]

Acid stability = assay type: physicochemical; conditions: pH 1 where stated
E. coli = assay: MIC, liquid medium test tube series dilution test; assay type: cell-based; conditions: strain not given, 24 hours
How it was run: as §1

Psdm. aerug. Walter [6] = assay: Surviving mice after intraperitoneal infection and subcutaneous therapy; assay type: in vivo, white mice, CF1 strain; conditions: compared with carbenicillin
Description: as §2

Proteus vulgaris 1017 = assay: Reduction in number of bacteria/ml of blood after subcutaneous administration; assay type: in vivo, mouse
Description: Reduction in number of bacteria/ml of blood after subcutaneous
administration of Penicillin No. 83.
Infection took place intraperitoneally with Proteus vulgaris 1017, 8
× 10^5 /mouse; ampicillin-resistant.

Pseudomon. aer. F 41 = assay: Surviving mice after intraperitoneal infection and subcutaneous therapy; assay type: in vivo, white mice, CF1 strain; conditions: 30 min before and 2, 4, 6 hours after infection, 1st day
Description: as §2

Klebsiella = conditions: background statement; cited from earlier work

Compound | MIC (E. coli 14) | MIC (E. coli 183/58) [units/ml] | MIC (E. coli A 261) | MIC (E. coli C 165) [units/ml] | MIC (Klebsiella 63) | MIC (Klebsiella K 10) | MIC [1] | MIC (Proteus vulg. 1017) | MIC (Proteus vulg. 3400) | MIC (Psdm. aerug. Bonn) | MIC (Psdm. aerug. Walter [2]) | MIC (Staph. aureus 133 [3]) [units/ml] | MIC (Staph. aureus 1777 E) | Number of surviving mice (Staph. aureus 133 [4]; 1 day) [%] | Number of surviving mice (Staph. aureus 133 [4]; 2 days) [%] | Number of surviving mice (Staph. aureus 133 [4]; 3 days) [%] | Number of surviving mice (Staph. aureus 133 [4]; 5 days) [%] | LD50 [5] [mg/kg] | Stability to acid (Acid stability) | Effectiveness against Klebsiella infections (Klebsiella) | also measured
CC(=O)N(C)C(=O)N[C@@H](C(=O)N[C@@H]1C(=O)N2[C@@H]1SC(C)(C)[C@@H]2C(=O)O)c1ccccc1 [Example 66A, Sodium D(-)-α-(3-acetyl-3-methyl-ureido)-benzylpenicillin] | 3.12 units/ml | 50 | > 400 units/ml | 12.5 | 50 units/ml | 50 units/ml | 25 units/ml | 50 units/ml | 100 units/ml | 6.25 units/ml | 12.5 units/ml | < 0.78 | 50 units/ml | 100 | 90 | 70 | 70 | > 4000 | remain microbiologically active at pH 1 for over one hour |  | 
Cc1ccc(C(=O)N(C)C(=O)N[C@@H](C(=O)N[C@@H]2C(=O)N3[C@@H]2SC(C)(C)[C@@H]3C(=O)O)c2ccccc2)cc1 [Example 73, Sodium D(-)-α-(3-p-methylbenzoyl-3-methyl-ureido)-benzylpenicillin] | 3.12 units/ml | 1.56 | 200-400 units/ml | 6.25 | 12.5-25 units/ml | 25-50 units/ml | 50-100 units/ml | 6.25 units/ml | 12.5 units/ml | 12.5 units/ml | ~ 50 units/ml | 0.78 |  | 80 | 70 | 50 | 40 |  |  |  | Effectiveness (MIC) (E. coli): 312 units/ml
CN(C(=O)N[C@@H](C(=O)N[C@@H]1C(=O)N2[C@@H]1SC(C)(C)[C@@H]2C(=O)O)c1ccccc1)C(=O)c1ccccc1Cl [Example 107] | < 0.8 units/ml | < 0.8 |  | < 0.8 | 4-20 units/ml | ~ 4 units/ml | 4-20 units/ml | 0.8-4 units/ml | 0.8-4 units/ml | 0.8-4 units/ml | 0.8-4 units/ml | < 0.8 | 20-100 units/ml |  |  |  |  |  |  |  | Effectiveness in animal experiments against Pseudomonas aerug. Walter (Psdm. aerug. Walter [6]): better than carbenicillin
COc1ccc(C(=O)N(C)C(=O)N[C@@H](C(=O)N[C@@H]2C(=O)N3[C@@H]2SC(C)(C)[C@@H]3C(=O)O)c2ccccc2)cc1[N+](=O)[O-] [Example 83, Sodium D(-)-α-(3-[4-methoxy-3-nitrobenzoyl]-3-methyl-ureido)-benzylpenicillin] | 3.12 units/ml | 6.25 | 400 units/ml | 6.25 | 50 units/ml | 25 units/ml | 100 units/ml | 25 units/ml | 6.25 units/ml | 50 units/ml | 100 units/ml | < 0.78 |  | 80 | 70 | 70 | 70 | > 1200 | remain microbiologically active at pH 1 for over one hour |  | Number of bacteria/ml of blood (Proteus vulgaris 1017; 1 × 50,000 units/kg s.c. 30 min after infection, 30 mins.): 9 × 10^3 bacteria/ml of blood; Number of bacteria/ml of blood (Proteus vulgaris 1017; 1 × 50,000 units/kg s.c., 60 mins.): 7 × 10^3 bacteria/ml of blood; Number of bacteria/ml of blood (Proteus vulgaris 1017; 1 × 50,000 units/kg s.c., 90 mins.): 2 × 10^3 bacteria/ml of blood; Number of bacteria/ml of blood (Proteus vulgaris 1017; 1 × 50,000 units/kg s.c., 120 mins.): 1 × 10^3 bacteria/ml of blood; Number of bacteria/ml of blood (Proteus vulgaris 1017; 1 × 50,000 units/kg s.c., 150 mins.): 3 × 10^3 bacteria/ml of blood; Number of bacteria/ml of blood (Proteus vulgaris 1017; 1 × 50,000 units/kg s.c., 180 mins.): 8 × 10^3 bacteria/ml of blood; Number of bacteria/ml of blood (Proteus vulgaris 1017; 50,000 units/kg s.c. after 30 and 90 min, 60 mins.): 8 × 10^3 bacteria/ml of blood; Number of bacteria/ml of blood (Proteus vulgaris 1017; 50,000 units/kg s.c. after 30 and 90 min, 90 mins.): ~5 × 10^3 bacteria/ml of blood; Number of bacteria/ml of blood (Proteus vulgaris 1017; 50,000 units/kg s.c. after 30 and 90 min, 120 mins.): 2 × 10^2 bacteria/ml of blood; Number of bacteria/ml of blood (Proteus vulgaris 1017; 50,000 units/kg s.c. after 30 and 90 min, 150 mins.): < 10^1 bacteria/ml of blood; Number of bacteria/ml of blood (Proteus vulgaris 1017; 50,000 units/kg s.c. after 30 and 90 min, 180 mins.): < 10^1 bacteria/ml of blood; Number of bacteria/ml of blood (Proteus vulgaris 1017; 50,000 units/kg s.c. after 30 min and further 50,000 units/kg after 90 min, 30 mins.): 2 × 10^4 bacteria/ml of blood
CC1(C)S[C@@H]2[C@H](NC(=O)C(C(=O)O)c3ccccc3)C(=O)N2[C@H]1C(=O)O (stereo partly drawn) [Carbenicillin] |  |  |  |  |  |  |  |  |  |  |  |  |  |  |  |  |  | 2700 |  | only effective in man in the case of infections by Klebsiella bacteria if it is administered in continuing high doses | Number of surviving mice (Pseudomon. aer. F 41; Dose E = 50,000 units/kg): 0%; Number of surviving mice (Pseudomon. aer. F 41; Dose F = 75,000 units/kg): 20%; Number of surviving mice (Pseudomon. aer. F 41; Dose G = 150,000 units/kg): 70%; Number of surviving mice (Pseudomon. aer. F 41; Dose H = 200,000 units/kg): 70%
CC1(C)S[C@@H]2[C@H](NC(=O)[C@H](N)c3ccccc3)C(=O)N2[C@H]1C(=O)O [Ampicillin, D(-)-α-Aminobenzylpenicillin, reference compound] | ~ 0.8 units/ml | 200 | > 400 units/ml | 6.25 | 100-200 units/ml | 100-200 units/ml |  | 400 units/ml | > 400 units/ml | 200 units/ml | 200 units/ml | < 1.0 | 200 units/ml | 100 | 100 | 100 | 100 |  |  | not capable of effectively combating Klebsiella infections | 

Source: patent US3974140A, “Ureidoacetamido-penicillins” (Bayer Aktiengesellschaft, priority 1970, dated 1976)
